pIC50: −log10 of the molar value.

For this assay, the target named is T1, Peroxisome proliferator-activated receptor gamma (Homo sapiens, UniProt P37231).
T1 sequence (P37231 whole entry): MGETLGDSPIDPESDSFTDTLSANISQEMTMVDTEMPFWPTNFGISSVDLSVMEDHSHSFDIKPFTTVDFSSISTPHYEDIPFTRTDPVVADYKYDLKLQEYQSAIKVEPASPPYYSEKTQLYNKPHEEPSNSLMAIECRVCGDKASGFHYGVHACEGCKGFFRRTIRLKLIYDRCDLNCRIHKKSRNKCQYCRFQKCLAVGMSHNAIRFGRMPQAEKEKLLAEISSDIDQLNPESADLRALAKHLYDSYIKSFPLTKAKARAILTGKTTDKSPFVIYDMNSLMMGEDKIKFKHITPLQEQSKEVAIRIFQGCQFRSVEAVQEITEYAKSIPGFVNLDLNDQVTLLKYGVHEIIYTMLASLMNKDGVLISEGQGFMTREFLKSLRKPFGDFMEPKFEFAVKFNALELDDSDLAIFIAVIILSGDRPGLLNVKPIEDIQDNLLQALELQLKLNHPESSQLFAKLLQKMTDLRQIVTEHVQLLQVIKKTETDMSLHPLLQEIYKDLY
As to the kind of experiment: Antagonist activity at PPARgamma (unknown origin) expressed in human LNCaP cells assessed as suppression of pioglitazone-induced PPAR response element driven firefly luciferase activity measured after 24 hrs by dual luciferase reporter assay. The assay is classed as cell-based.
For orientation: pIC50 means the IC50 on a negative log10 scale, so that one unit is a factor of ten. In the case of `O=C(O)c1ccccc1-c1ccccc1C(=O)Nc1ccc2c(c1)-c1ccccc1C2`, the negative logarithm of the IC50 (pIC50) is 5.46. As for `COc1cc(OC)c2c(=O)cc(-c3cccnc3)oc2c1`, the figure is 5.96; as for `O=C1C=C(Nc2ccccc2C(=O)CC(=O)C(=O)Nc2ccc(Cl)c(Cl)c2)c2ccccc2C1=O`, 5.55.

On to `CCN(CC)c1ccc(CN(CC(=O)c2ccc(Cl)c(Cl)c2)Cc2ccccc2)cc1`, for which the pIC50 was 5.35. Take `COc1ccc(O)c(/C=N/c2ccccc2NS(=O)(=O)c2ccc(C)cc2)c1`: the negative-log IC50 (pIC50) was 5.64. For `O=C(CNC(=O)Nc1ccc(NC(=O)NCC(=O)Nc2ccc(C3=NCCN3)cc2)cc1)Nc1ccc(C2=NCCN2)cc1`, the pIC50 was 5.80. Next, `O=C(OCc1cccc2ccc3cccc(COC(=O)c4ccccc4)c3c12)c1ccccc1`: 5.27.

Regarding `CC(=O)c1cc(C(C)=O)c(CC(=O)C(=O)Nc2cccc(C)c2C)cc1CC(=O)C(=O)Nc1cccc(C)c1C`, the pIC50 was 5.59. As for `O=S(=O)(NCCSSCCNS(=O)(=O)c1cccc2cccnc12)c1cccc2cccnc12`, the figure is 5.82; as for `O=C(Nc1ccccc1C(=O)N/N=C/c1c(O)ccc2ccccc12)c1ccccc1Cl`, 5.77; as for `COc1ccc(NC(=O)CC[C@H](NS(=O)(=O)c2ccc(C)cc2)C(=O)O)cc1`, 3.56. Consider `O=C(CCCOc1ccc(Cl)cc1Cl)N[C@@H](Cc1c[nH]c2ccccc12)C(=O)O`, for which the pIC50 is 5.62. Next, `CC(/C=N/Nc1ccc(S(=O)(=O)/N=C/C(C)=C/c2ccccc2)cc1)=C\c1ccccc1`: 5.64; `O=C(CCCC(=O)N/N=C/c1cccc2ccccc12)N/N=C/c1ccc2ccccc2c1`: 5.68; `COc1c(OC)c(O)c2c(=O)cc(-c3ccc(O)cc3)oc2c1OC` [XANTHOMICROL]: 5.27.
